# Test results reported in patent US20260256716A1, “COMPOSITIONS AND METHODS OF USE THEREOF” (Board of Supervisors of Louisiana State University and …, priority 2023, published 2026).
# Experiments:
# ARPE cells [1] = experiment: Blue light induced mitochondrial oxidative stress in ARPE cells (Mitosox); assay type: cell-based, human; conditions: 0.001 nM; 24 hours; hyperglycemic conditions; blue light 400 nm 12 seconds
# Method: Representative 5-HT2A Receptor Agonist, R-DOI Inhibits Blue Light Induced Mitochondrial-Mediated Oxidative Stress at low sub-nanomolar concentrations thereby reversing adverse processes that are associated with retinal exposure to blue light. ARPE cells grown under hyperglycemic conditions were plated and mock treated or treated with R-DOI at 0.001 nM. 24 hours post treatment, live ARPE cells were labeled with the mitochondrial oxidative stress indicator dye Mitosox that becomes fluorescent red under mitochondria-induced oxidative stress conditions. Once stained, live ARPE cells were exposed to focused blue light at 400 nm for 12 seconds and the ability of drugs to protect against blue light damage-induced mitochondrial oxidative stress induction was assessed. In the absence of 5HT2A agonists, there was a clear increase in red fluorescence upon blue light exposure.
# ARPE-19 cells [2] = experiment: SA-β-Gal cellular senescence in ARPE-19 cells in nutrient rich media (DMEM); assay type: cell-based, human; conditions: 10 nM in starvation media overnight, then DMEM 7% FCS 72 hours
# Method: ARPE-19 cells in nutrient rich media (DMEM; 7% FCS) were seeded overnight prior to being replaced with starvation media (DMEM; 0.5% FCS) containing 10 nM R-DOI or 10 nM M100,907. After overnight incubation in starvation media with drug, cells were swapped to DMEM 7% FCS media for 72-hours. After the 72-hour incubation, cells were fixed and stained for SA-β-Gal for 6-hours. Cells nuclei were then stained with DAPI for total-cell enumeration. SA-β-Gal positive cells, and total cells per frame, were quantified by microscopy.
# [3] = tested on: NAD synthesis and salvage; experiment: RT-PCR of NAD synthesis and salvage pathways / NAD levels; assay type: cell-based
# SIRT1 and 3 = experiment: Western analysis of Sirtuin (SIRT) 1 and 3 expression; assay type: cell-based; conditions: varying concentrations, increased as concentrations decreased to nM
# Excerpt: Sirtuins utilize NAD to suppress pathophysiological processes of aging, including diabetic retinopathies, AMD and Neurodegeneration. Representative western analysis of Sirtuin (SIRT) 1 and 3 expression following cellular treatment with the representative 5-HT2A Receptor agonist R-DOI at varying concentrations.
# ARPE-19 cells [4] = experiment: Hyperglycemia induced SA-β-Gal cellular senescence in ARPE-19 cells (HPLM); assay type: cell-based, human; conditions: 10 nM; HPLM with 5, 10, 20 or 30 mM glucose, 72 hours
# Method: Consistent with Retinal Deterioration by Glucose-Induced Cellular Senescence in the Diabetic Population, Hyperglycemic conditions induce increased disease promoting Cellular Senescence that is abrogated by low nM concentrations of the Representative 5-HT2A Receptor Agonist, R-DOI Returning to Base-line Homeostatic Levels. ARPE-19 cells in physiologically relevant media (HPLM; 7% FCS) were seeded overnight prior to being replaced with starvation media (HPLM 0.5% FCS) containing 10 nM R-DOI. After overnight incubation in starvation media, cells were swapped to media containing diabetic blood glucose levels (HPLM 7% FCS containing 5 mM, 10 mM, 20 mM, or 30 mM glucose) for 72-hours. After the 72-hour incubation, cells were fixed and stained for SA-β-Gal for 6-hours. Cells nuclei were then stained with DAPI for total-cell enumeration. SA-β-Gal positive cells, and total cells per frame, were quantified by microscopy. Pathological/diabetic glucose concentrations induce cellular senescence. 5-HT2A receptor agonism alleviates glucose-induced senescence at diabetic blood glucose levels. […]
# Effects of specific phenethylamine 5-HT2A receptor agonists on reduction of Hyperglycemia induced Disease Promoting Cellular Senescence: Inhibition of Cell Senescence and Disease Processes are Drug and Dose Dependent. […] SA-3-Gal positive cells, and total cells per frame, were quantified by microscopy. For each 5-HT2A agonist assessed, the % of senescent cells is expressed relative to the hyperglycemic control. […]
# Inhibition of Cell Senescence and Disease Processes are Drug and Dose Dependent. […] SA-β-Gal positive cells, and total cells per frame, were quantified by microscopy. For each 5-HT2A agonist assessed, the % of senescent cells is expressed relative to the hyperglycemic control. […]
# ARPE cells [5] = experiment: Cumene hydroperoxide induced lipid peroxidation in ARPE cells (BODIPY); assay type: cell-based, human; conditions: 100 nM and 1 nM overnight; 100 uM cumene hydroperoxide
# Method: Representative 5-HT2A Receptor Agonist, R-DOI, Decreases Oxidative stress induced lipid peroxidation at low nM concentrations thereby reversing adverse processes that underlie development and progression of the Pathophysiology of Age-Associated Ocular and Neurodegenerative Diseases. ARPE cells were plated and mock treated or treated with the 5HT2A agonist R-DOI at 100 nM or 1 nM concentrations. Following an overnight incubation, live ARPE cells were labeled with an lipid peroxidation indicator dye BODIPY that changes fluorescence from red to green as it becomes oxidized. Cells were subsequently treated with 100 uM cumene hydroperoxide to induce lipid peroxidation and cellular oxidative stress and imaged in the red and green channels to assess the protective effects of 5HT2A agonists on lipid peroxidation. In the absence of 5HT2A agonists, there was a clear increase in green fluorescence present following treatment with cumene hydroperoxide.
smiles,measurement,setting,value
"COc1cc(C[C@@H](C)N)c(OC)cc1I (single isomer, unassigned) [R-DOI, R enantiomer 2,5-Dimethoxy-4-iodoamphetamine]",blue light induced mitochondrial oxidative stress,ARPE cells [1],abrogated mitochondrial oxidative stress responses
same,cellular senescence (SA-β-Gal positive cells),ARPE-19 cells [2],Decreases Basal Levels of Cellular Senescence
same,NAD levels / NAD synthesis and salvage pathways,[3]; higher doses,causes downregulation of these pathways and decreased NAD levels
same,NAD levels / NAD synthesis and salvage pathways,[3]; low dose,increases protective NAD levels
same,SIRT1 and 3 expression,SIRT1 and 3,induced
same,SIRT1 and 3 expression,SIRT1 and 3; listed as (R)-DOI,upregulates SIRT1
same,hyperglycemia induced cellular senescence (SA-β-Gal positive cells),ARPE-19 cells [4],abrogated
same,oxidative stress induced lipid peroxidation,ARPE cells [5],abrogated lipid peroxidation
